Test results from US20100216799A1, “PHTHALAZINE AND PYRIDO[3,4-D]PYRIDAZINE COMPOUNDS AS H1 RECEPTOR ANTAGONISTS” (Glaxo Group Limited, priority 2007, published 2010).

Tests used:
Assay type in all cases: cell-based
[1] = target: T1, human H1 receptor (Homo sapiens, UniProt P35367); test: Histamine H1 functional antagonist assay (FLIPR): determination of antagonist pA2; conditions: CHO cells expressing H1 receptor, shift of histamine concentration response curve
T1 construct: expressed in transfected cells
Procedure: The human H1 receptor is cloned using known procedures described in the literature [Biochem. Biophys. Res. Commun., 201(2):894 (1994)]. Chinese hamster ovary (CHO) cells stably expressing the human H1 receptor are generated according to known procedures described in the literature [Br. J. Pharmacol., 117(6):1071 (1996)]. The histamine H1 receptor expressing CHO cells are seeded into non-coated black-walled clear bottom 96-well tissue culture plates as described above. Following overnight culture, growth medium is removed from each well, washed with 200 μl PBS and is replaced with 50 μl loading dye (250 μM Brilliant Black, 1 μM Fluo-4 diluted in Tyrodes buffer+probenecid (145 mM NaCl, 2.5 mM KCl, 10 mM HEPES, 10 mM D-glucose, 1.2 mM MgCl2, 1.5 mM CaCl2, 2.5 mM probenecid, pH adjusted to 7.40 with NaOH 1.0 M)). Cells are incubated for 45 min at 37° C. The loading buffer is removed and the cells are washed as above, and 90 μl of Tyrodes buffer+probenecid is added to each well. 10 μl of test compound, diluted to the required concentration in Tyrodes buffer+probenecid (or 10 μl Tyrodes buffer+probenecid as a control) is added to each well and the plate is incubated for 30 min at 37° C., 5% CO2. The plates are then placed into a FLIPR™ (Molecular Devices, UK) to monitor cell fluorescence (λex=488 nm, λEM=540 nm) in the manner described in Sullivan et al., (In: Lambert DG (ed.), Calcium Signaling Protocols, New Jersey: Humana Press, 1999, 125-136) before and after the addition of 50 μl histamine over a concentration range of 1 mM-0.1 nM. The resultant concentration response curves are analysed by non-linear regression using a standard four parameter logistic equation to determine the histamine EC50, the concentration of histamine required to produce a response of 50% of the maximum response to histamine. The antagonist pA2 is calculated using the following standard equation: pA2=log(DR-1)−log [B] where DR=dose ratio, defined as EC50antagonist-treated/EC50control and [B]=concentration of antagonist.

[2] = target: T1, human H1 receptor; test: Histamine H1 functional antagonist assay (FLIPR): antagonist duration after washout; conditions: at one or more time points, typically 30-270 min
Procedure: (§1) The human H1 receptor is cloned using known procedures described in the literature [Biochem. Biophys. Res. Commun., 201(2):894 (1994)]. Chinese hamster ovary (CHO) cells stably expressing the human H1 receptor are generated according to known procedures described in the literature [Br. J. Pharmacol., 117(6):1071 (1996)].
To determine the antagonist duration, cells are cultured overnight in non-coated black-walled clear bottom 96-well tissue culture plates, are washed with PBS and are incubated with a concentration of antagonist chosen to give an approximate DR in the range 30-300. Following the 30 min antagonist incubation period, the cells are washed two or three times with 200 μl of PBS and then 100 μl Tyrodes buffer is added to each well to initiate antagonist dissociation. Following incubation for predetermined times, typically 30-270 min at 37° C., the cells are then washed again with 200 μl PBS and are incubated with 100 μl Tyrodes buffer containing Brilliant Black, probenecid and Fluo-4 for 45 min at 37° C., as described above. After this period, the cells are challenged with histamine in the FLIPR™ as described above. The dose ratio at each time point is used to determine the fractional H1 receptor occupancy by the following equation: fractional receptor occupancy=(DR-1)/DR. The decrease in receptor occupancy over time approximates to a straight line and is analysed by linear regression. The slope of this straight line fit is used as an index of the dissociation rate of the antagonist. The dose ratios for antagonist treated cells and for antagonist treated and washed cells at each time point are used to calculate a relative dose ratio (rel DR) which is also used as an index of antagonist duration. Antagonists with long duration of action produce rel DR values close to 1, and antagonists with short duration of action produce rel DR values that approaches the dose ratio value obtained for antagonist treatment alone.

[3] = target: T1, human H1 receptor; test: Histamine H1 functional antagonist assay (FLIPR): determination of functional pKi values; conditions: CHO cells expressing human H1 receptor, histamine at EC80, read-out: average pKa (pKb) at H1 (converted)
Procedure: as §1
The histamine H1 cell line is seeded into non-coated black-walled clear bottom 384-well tissue culture plates in alpha minimum essential medium (Gibco/Invitrogen, cat no. 22561-021), supplemented with 10% dialysed foetal calf serum (Gibco/Invitrogen cat no. 12480-021) and 2 mM L-glutamine (Gibco/Invitrogen cat no 25030-024) and is maintained overnight at 5% CO2, 37° C.
Excess medium is removed from each well to leave 10 μl. 30 μl loading dye (250 μM Brilliant Black, 2 μM Fluo-4 diluted in Tyrodes buffer+probenecid (145 mM NaCl, 2.5 mM KCl, 10 mM HEPES, 10 mM D-glucose, 1.2 mM MgCl2, 1.5 mM CaCl2, 2.5 mM probenecid, pH adjusted to 7.40 with NaOH 1.0 M)) is added to each well and the plates are incubated for 60 min at 5% CO2, 37° C.
10 μl of test compound, diluted to the required concentration in Tyrodes buffer+probenecid (or 10 μl Tyrodes buffer+probenecid as a control) is added to each well and the plate is incubated for 30 min at 37° C., 5% CO2. The plates are then placed into a FLIPR™ (Molecular Devices, UK) to monitor cell fluorescence (λex=488 nm, λEM=540 nm) in the manner described in Sullivan et al., (In: Lambert DG (ed.), Calcium Signaling Protocols, New Jersey: Humana Press, 1999, 125-136) before and after the addition of 10 μl histamine at a concentration that results in the final assay concentration of histamine being EC80.
Functional antagonism is indicated by a suppression of histamine induced increase in fluorescence, as measured by the FLIPR™ system (Molecular Devices). By means of concentration effect curves, functional affinities are determined using standard pharmacological mathematical analysis.

T1 sequence (P35367 whole entry): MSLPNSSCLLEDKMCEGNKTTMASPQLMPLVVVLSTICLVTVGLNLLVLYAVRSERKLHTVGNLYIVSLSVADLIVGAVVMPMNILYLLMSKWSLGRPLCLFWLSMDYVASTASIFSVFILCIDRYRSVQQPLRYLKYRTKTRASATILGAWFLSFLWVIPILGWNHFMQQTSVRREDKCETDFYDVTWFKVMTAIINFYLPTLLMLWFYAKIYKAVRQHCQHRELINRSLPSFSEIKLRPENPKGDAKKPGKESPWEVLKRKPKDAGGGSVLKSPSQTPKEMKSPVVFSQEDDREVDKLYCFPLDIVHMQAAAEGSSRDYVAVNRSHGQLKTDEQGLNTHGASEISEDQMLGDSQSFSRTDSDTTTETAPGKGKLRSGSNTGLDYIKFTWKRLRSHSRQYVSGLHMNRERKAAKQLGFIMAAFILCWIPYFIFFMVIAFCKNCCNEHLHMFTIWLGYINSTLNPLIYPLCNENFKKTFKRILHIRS

| Kb [1] [nM] | Kb [3] [nM] | SMILES | duration of action compared with azelastine [2] |
| --- | --- | --- | --- |
| < 1 | < 100 | CC(C)S(=O)(=O)NCCN1CCC[C@@H]1Cn1nc(Cc2ccc(Cl)cc2)c2ccccc2c1=O [Example 8, N-[2-((2R)-2-{[4-[(4-Chlorophenyl)methyl]-1-oxo-2(1H)-phthalazinyl]methyl}-1-pyrrolidinyl)ethyl]-2-propanesulfonamide] | longer duration of action than azelastine |
| < 1 | – | CCCNC(=O)NCCN1CCC[C@@H]1Cn1nc(Cc2ccc(Cl)cc2)c2cnccc2c1=O [Example 14, N-[2-((2R)-2-{[4-[(4-chlorophenyl)methyl]-1-oxopyrido[3,4-d]pyridazin-2(1H)-yl]methyl}-1-pyrrolidinyl)ethyl]-M-propylurea] | – |
| < 1 | < 100 | CCCS(=O)(=O)NCCN1CCC[C@@H]1Cn1nc(Cc2ccc(Cl)cc2)c2ccccc2c1=O [Example 7, N-[2-((2R)-2-{[4-[(4-Chlorophenyl)methyl]-1-oxo-2(1H)-phthalazinyl]methyl}-1-pyrrolidinyl)ethyl]-1-propanesulfonamide] | longer duration of action than azelastine |
| < 1 | – | CCS(=O)(=O)CCCN1CCC[C@@H]1Cn1nc(Cc2ccc(Cl)cc2)c2cnccc2c1=O [Example 12, 4-[(4-Chlorophenyl)methyl]-2-({(2R)-1-[3-(ethylsulfonyl)propyl]-2-pyrrolidinyl}methyl)pyrido[3,4-d]pyridazin-1(2H)-one] | longer duration of action than azelastine |
| < 10 | – | CCS(=O)(=O)CCN1CCC[C@@H]1Cn1nc(Cc2ccc(Cl)cc2)c2cnccc2c1=O [Example 13, 4-[(4-Chlorophenyl)methyl]-2-({(2R)-1-[2-(ethylsulfonyl)ethyl]-2-pyrrolidinyl}methyl)pyrido[3,4-d]pyridazin-1(2H)-one] | – |
| < 1 | – | CCCNC(=O)NCCN1CCC[C@@H]1Cn1nc(Cc2ccc(Cl)cc2)c2ccccc2c1=O [Example 11, N-[2-((2R)-2-{[4-[(4-Chlorophenyl)methyl]-1-oxo-2(1H)-phthalazinyl]methyl}-1-pyrrolidinyl)ethyl]-M-propylurea] | longer duration of action than azelastine |
| < 10 | < 100 | COCCCNS(=O)(=O)CCN1CCC[C@@H]1Cn1nc(Cc2ccc(Cl)cc2)c2ccccc2c1=O [Example 10, 2-((2R)-2-{[4-[(4-Chlorophenyl)methyl]-1-oxo-2(1H)-phthalazinyl]methyl}-1-pyrrolidinyl)-N-[3-(methyloxy)propyl]ethanesulfonamide] | longer duration of action than azelastine |

The remaining lines, values behind:

| SMILES | Kb [1] [nM] | Kb [3] [nM] | duration of action compared with azelastine [2] |
| --- | --- | --- | --- |
| CCS(=O)(=O)CCCN1CCC[C@@H]1Cn1nc(Cc2ccc(Cl)cc2)c2ccccc2c1=O [Example 3, 4-[(4-Chlorophenyl)methyl]-2-({(2R)-1-[3-(ethylsulfonyl)propyl]-2-pyrrolidinyl}methyl)-1(2H)-phthalazinone] | < 1 | – | longer duration of action than azelastine |
| O=c1c2ccccc2c(Cc2ccc(Cl)cc2)nn1C[C@H]1CCCN1CCS(=O)(=O)N1CCCCC1 [Example 2, 4-[(4-Chlorophenyl)methyl]-2-({(2R)-1-[2-(1-piperidinylsulfonyl)ethyl]-2-pyrrolidinyl}methyl)-1(2H)-phthalazinone] | – | < 100 | – |
| CCS(=O)(=O)C(C)CCN1CCC[C@@H]1Cn1nc(Cc2ccc(Cl)cc2)c2ccccc2c1=O (stereo partly drawn) [Example 4, 4-[(4-Chlorophenyl)methyl]-2-({(2R)-1-[3-(ethylsulfonyl)butyl]-2-pyrrolidinyl}methyl)-1(2H)-phthalazinone] | < 1 | – | – |
| CCS(=O)(=O)CCN1CCC[C@@H]1Cn1nc(Cc2ccc(Cl)cc2)c2ccccc2c1=O [Example 1, 4-[(4-Chlorophenyl)methyl]-2-({(2R)-1-[2-(ethylsulfonyl)ethyl]-2-pyrrolidinyl}methyl)-1(2H)-phthalazinone] | < 1 | – | – |
| CCS(=O)(=O)NCCN1CCC[C@@H]1Cn1nc(Cc2ccc(Cl)cc2)c2ccccc2c1=O [Example 6, N-[2-((2R)-2-{[4-[(4-Chlorophenyl)methyl]-1-oxo-2(1H)-phthalazinyl]methyl}-1-pyrrolidinyl)ethyl]ethanesulfonamide] | < 1 | – | longer duration of action than azelastine |
| CCS(=O)(=O)[C@@H](C)CCN1CCC[C@@H]1Cn1nc(Cc2ccc(Cl)cc2)c2ccccc2c1=O [Example 5A, 4-[(4-Chlorophenyl)methyl]-2-({(2R)-1-[(3S)-3-(ethylsulfonyl)butyl]-2-pyrrolidinyl}methyl)-(2H)-phthalazinone] | < 10 | – | – |
| CCS(=O)(=O)[C@H](C)CCN1CCC[C@@H]1Cn1nc(Cc2ccc(Cl)cc2)c2ccccc2c1=O [Example 5B, 4-[(4-Chlorophenyl)methyl]-2-({(2R)-1-[(3R)-3-(ethylsulfonyl)butyl]-2-pyrrolidinyl}methyl)-(2H)-phthalazinone] | < 10 | – | – |
